# Experimental data reported in patent US20040162221A1, “Pyrazole derivatives and herbicides containing the same” (IDEMITSU KOSAN CO., LTD., priority 1998, published 2004).
# How the values were obtained:
# Conditions in all cases: post-emergence spray at 3-4 leaf stage, 80 g/ha, 30th day after treatment, greenhouse
# [1] = tested on: green foxtail; assay: Upland post-emergence treatment test, green foxtail; format: in vivo, green foxtail (Setaria viridis)
# From the text: (§1) 97 Parts by weight of talc (trade name: Zeaklite, supplied by Zeaklite Industry) as a carrier, 1.5 parts by weight of alkylarylsulfonic acid salt (trade name: Neoplex, supplied by Kao-Atlas K.K.) as a surfactant and 1.5 parts by weight of a nonionic and anionic surfactant (trade names Sorpol 800A, supplied by Toho Chemical Co., Ltd.) were uniformly pulverized and mixed to prepare a carrier for a wettable powder.
# (§2) 90 Parts by weight of the above carrier for a wettable powder and 10 parts by weight of one of the compounds of the present invention were uniformly pulverized and mixed to obtain herbicides. Further, in Comparative Herbicide Examples, comparative herbicides were also prepared from the following compounds (A) and (B) in the same manner.
# (§3) Herbicidal efficacy and phytotoxicity to crops were determined on the basis of the ratio of remaining plant weight to plant weight in non-treated plot=(remaining plant weight in treated plot/plant weight in non-treated-plot)×100. The ratings were applied to the following biological tests.
# (§4) Seeds of weeds velvetleaf, redroot pigweed, common ragweed, green foxtail and large crabgrass and seeds of corn were sown in 1/5,000-are Wagner pots filled with upland soil, and covered with upland soil. The seeds were grown in a greenhouse, and at the stage of 3˜4 leaves of these plants, a predetermined amount of the herbicide prepared in the above (1) was suspended in water, and the suspension was uniformly sprayed onto leaf and stalk portions at a rate of 2,000 liters/hectare. Then, the plants were grown in the greenhouse, and on the 30th day after the treatment, the herbicide was evaluated for herbicidal efficacy and phytotoxicity to the corn on the basis of the ratings shown in (2).
# [2] = tested on: redroot pigweed; assay: Upland post-emergence treatment test, redroot pigweed; format: in vivo, redroot pigweed (Amaranthus retroflexus)
# From the text: as §1, §2, §3, §4
# [3] = tested on: velvetleaf; assay: Upland post-emergence treatment test, velvetleaf; format: in vivo, velvetleaf (Abutilon theophrasti)
# From the text: as §1, §2, §3, §4
# [4] = tested on: common ragweed; assay: Upland post-emergence treatment test, common ragweed; format: in vivo, common ragweed (Ambrosia artemisilfolia)
# From the text: as §1, §2, §3, §4
# [5] = tested on: large crabgrass; assay: Upland post-emergence treatment test, large crabgrass; format: in vivo
# From the text: as §1, §2, §3, §4
# [6] = tested on: corn; assay: Upland post-emergence treatment test, phytotoxicity to corn; format: in vivo
# From the text: as §1, §2, §3, §4
# Also: ranges in brackets are in %.
SMILES,Herbicidal Efficacy EE = Green foxtail [1],Herbicidal Efficacy CC = Redroot Pigweed [2],Herbicidal Efficacy AA = Velvetleaf [3],Herbicidal Efficacy DD = Common ragweed [4],Herbicidal Efficacy FF = Large crabgrass [5],Phytotoxicity Corn [6]
CCCCS(=O)(=O)Oc1c(C(=O)c2ccc3c(c2C)C(C)(C)CS3(=O)=O)cnn1C [Compound 7],5 (0),5 (0),5 (0),5 (0),5 (0),− (100)
CC(C)N.Cc1c(C(=O)c2cnn(C)c2O)ccc2c1C(C)(C)CS2(=O)=O [Compound 51],5 (0),5 (0),5 (0),5 (0),5 (0),− (100)
COc1ccc(S(=O)(=O)Oc2c(C(=O)c3ccc4c(c3C)C(C)(C)CS4(=O)=O)cnn2C)cc1 [Compound 25],5 (0),5 (0),5 (0),5 (0),5 (0),− (100)
Cc1c(C(=O)c2cnn(C)c2OS(=O)(=O)CC(C)C)ccc2c1C(C)(C)CS2(=O)=O [Compound 8],5 (0),5 (0),5 (0),5 (0),5 (0),− (100)
Cc1c(C(=O)c2cnn(C)c2OS(=O)(=O)CCl)ccc2c1C(C)(C)CS2(=O)=O [Compound 13],5 (0),5 (0),5 (0),5 (0),5 (0),− (100)
Cc1ccc(C(=O)Oc2c(C(=O)c3ccc4c(c3C)C(C)(C)CS4(=O)=O)cnn2C)cc1 [Compound 42],5 (0),5 (0),5 (0),5 (0),5 (0),− (100)
Cc1c(C(=O)c2cnn(C)c2OS(=O)(=O)c2ccc(Cl)cc2)ccc2c1C(C)(C)CS2(=O)=O [Compound 21],5 (0),5 (0),5 (0),5 (0),5 (0),− (100)
Cc1c(C(=O)c2cnn(C)c2OS(=O)(=O)C2CC2)ccc2c1C(C)(C)CS2(=O)=O [Compound 6],5 (0),5 (0),5 (0),5 (0),5 (0),− (100)
Cc1cc(C)c(S(=O)(=O)Oc2c(C(=O)c3ccc4c(c3C)C(C)(C)CS4(=O)=O)cnn2C)c(C)c1 [Compound 27],5 (0),5 (0),5 (0),5 (0),5 (0),− (100)
